From patent US20140308207A1, “OPEN MICROFLUIDIC DEVICES FOR CHEMOTAXIS, METHODS OF USING SAME, AND APPLICATIONS OF SAME” (priority 2013, published 2014)

Experiments:
[1] = test system: Dictyostelium discoideum cells
Text: Cells were readily loaded by micropipetting into the cell loading area where they were allowed to settle and adhere to the silica cover slip. The channels were primed with buffer by a syringe; we observed that the cells randomly migrated on the surface. Once the cells adhered, cAMP was pumped in to form a chemoattractant gradient. To perform this function, a Harvard apparatus pump was used to create positive pressure on the chemoattractant loaded syringe.
As shown in FIG. 6(a), tracks of seven individual cells (A-G) migrating toward the cAMP source openings (open circles). The starting point for each cell is marked with and X. Scale bar is 20 μm. B.) Quantitation of the migration parameters for cells A-G. In the table as shown in FIG. 6(b), V, C.I., and P represent velocity (microns/min.), chemotactic index, and persistence, respectively. The multiple data points in the table for cells A-G represent different sections of the path as the cell traveled toward the cAMP source.
The cell buffer was used for water immersion.
The device was connected to an inlet and outlet syringe on a Harvard Apparatus syringe pump using microfluidic tubing. […]
In order to visualize the migration of cells and record the specifics of chemotactic response; a program was written with LabVIEW™ software. […] The measured centroids are overlayed on the image data so that the tracking of the cell can be visually verified. […]

[2] = test system: Dictyostelium discoideum cells; settings: AX2 cells expressing RBD-GFP, 10 μM cAMP, bulk silica device, cells A-E tracked
Text: (Jowhar, et al., 2010.) D. discoideum cells expressing the Ras Binding Domain of Rafl and fused to the green fluorescent protein (RBD-GFP) were loaded into the open cell ports and exposed to gradients of the chemoattractant cAMP, as shown in FIG. 1E. […] Each 3 mm cell loading port was exposed to three different sources of cAMP (from three 3.0 μm gradient generating ports) under the control of a syringe or Harvard apparatus pump, which serves as a chemoattractant supply device. The syringe pump was used to apply a constant positive pressure to the loaded syringe, thus, preventing fluctuations in the gradient from potential backflow created by negative pressure.
A number of solitary cells that could be followed continuously were tracked using the Cell Tracker program written in LabVIEW™ software (FIG. 3a).
The starting point for each cell is marked with and X. Scale bar is 10 μm. In the table as shown in FIG. 3(b), V, C.I., and P represent velocity (microns/min.), chemotactic index, and persistence, respectively. The same cells were measured at different points along the traveled path to the source and are scored more than once. […]
In order to visualize the migration of cells and record the specifics of chemotactic response; a program was written with LabVIEW™ software. […] The measured centroids are overlayed on the image data so that the tracking of the cell can be visually verified.

myeloid cells = test: Intravital imaging of a mouse with microfluidic coverslip; format: in vivo; settings: 50 ng/ml added through coverslip device

| Compound | chemotaxis indices and persistence ([1]; AX2 cells expressing RBD-GFP, 100 nM cAMP, silica coverslip device with five ports, cells A-G tracked) | cell migration toward gradient ports ([1]; cells expressing LimE-RFP, cover slip device with three 15 μm ports, upright microscope, 80-minute series) | chemotaxis indices and persistence toward the source [2] | migration rates of myeloid cells (myeloid cells) |
| --- | --- | --- | --- | --- |
| Nc1ncnc2c1ncn2[C@@H]1O[C@@H]2COP(=O)(O)O[C@H]2[C@H]1O [cAMP, cyclic adenosine monophosphate] | good chemotaxis indices and persistence | rapidly migrated towards and into the cAMP gradient cover slip ports | strong chemotaxis indices and persistence | – |
| epidermal growth factor: growth factor added through the microfluidic coverslip to alter myeloid cell migration | – | – | – | migration rates altered |
